Assay results reported in patent publication US20160058712A1, “3-HYDROXYPTEROSTILBENE AND THERAPEUTIC APPLICATIONS THEREOF” (priority 2014, published 2016).

Experiments:
COLO 205 cells [1] = test: Autophagy (acidic vesicular organelles) by acridine orange staining; type: cell-based, human; settings: 24 h
Description: Autophagy induction in COLO 205 cells treated with 3-HPT and pterostilbene was detected by Acridine Orange (AO) staining. After 24 h treatment, COLO 205 cells were washed with phosphate buffered saline (PBS), suspended in PBS and stained with 1 μg/mL AO of 20 min. Photographs were obtained with a fluorescence microscope (Axioscop, Carl Zeiss, Thomwood, N.Y.) equipped with a mercury 100 W lamp, 490 nm Bandpass blue excitation filters, a 500 nm dichroic mirror and a 515 nm long pass barrier filter. For quantification of AVOs by flow cytometry, cells were treated as described under EXAMPLE II and stained with AO for 15 min and were analyzed by FACScan laser flow cytometer and CellQuest software.

[2] = system: LC3 I/II in COLO 205 cells; test: Western blotting of LC3 I/II expression; type: cell-based, human; settings: COLO 205, 50 μM, 24 hours, compared to pterostilbene
Description: Western blotting analysis was performed as follows. The total proteins of COLO 205 cells were extracted via addition of gold lysis buffer (50 mM TrisHCl, pH 7.4; 1 mM NaF; 150 mM NaCl; 1 mM EGTA; 1 mM phenylmethanesulfonyl fluoride; 1% NP40; and 10 μg/mL leupeptin) to the cell pellets on ice for 30 min, followed by centrifugation at 10,000×g for 30 min at 4° C. The total proteins were measured by BioRad Protein Assay (BioRad Laboratories, Munich, Germany). The samples (50 μg of protein) were mixed with 5× sample buffer containing 0.3 M TrisHCl (pH 6.8), 25% 2mercaptoethanol, 12% sodium dodecyl sulfate (SDS), 25 mM EDTA, 20% glycerol, and 0.1% bromophenol blue. The mixtures were boiled at 100° C. for 5 min and were subjected to 10% SDS polyacrylamide minigels at a constant current of 20 mA. Electrophoresis was then carried out on SDSpolyacrylaniide gels. […] The transferred proteins were visualized with an enhanced chemi-luminescence detection kit (ECL Amersham Pharmacia Biotech, Buckinghamshire, UK). The densities of the bands were quantified with a computer densitometer (AlphaImager™ 2200 System Alpha densitometer. Innotech Corporation, San Leandro, Calif.). […]
COLO 205 cells were treated with 50 μM pterostilbene or 3-hydroxypterostilbene for 24 hours. Cell lysates were prepared after 24 h treatment and the protein expression of LC3 were analyzed by Western blotting.

[3] = system: caspase 3 activity in COLO 205 cells; test: Fluorogenic caspase induction assay; type: cell-based, human; settings: COLO 205, after 24 hours of treatment
Description: The caspase 3, 8 and 9 induction activity in protein extractions of COLO 205 cells was determined by a fluorogenic assay (Promega's CaspACE Assay System, Madison, Wis.). Briefly, 50 μg of total protein, as determined by the BioRad protein assay kit (BioRad Laboratories), was incubated with 50 μM substrate Ac-Asp-Glu-Val-Asp-methylcoumaryl-7-amine (caspase3 specific substrate), Ac-Ile-Glu-Thr-Asp-AMC ([…]) (caspase 8 specific substrate), or Ac-Leu-Glu-His-Asp-AMC (Ac-LEHD-AMC) (caspase 9 specific substrate) at 30° C. for 1 h. The release of methylcoumaryl-7-amine was measured by excitation at 360 nm and emission at 460 nm using a fluorescence spectrophotometer (ECLIPSE, Varian, Palo Alto, Calif.).

PC-3 cells = test: Flow cytometry analysis of subG1 cell population in PC-3 cells; type: cell-based, human; settings: PC-3, 0-20 μM, 48 hr
Description: PC-3 cells were cultured in serum-free RPMI containing 0, 2.5, 5, 10, or 20 μM of 3-HPT for 48 hr followed by flow cytometric analysis.

COLO 205 cells [4] = test: Chloroquine (CQ) pretreatment, MTT viability and subG1 analysis; type: cell-based; settings: COLO 205, 25 μM CQ 1 h then 50 μM for 24 h
Description: Cells were pretreated with 25 μM CQ for 1 h before treatment with 50 μM of pterostilbene or 3-hydroxypterostilbene for 24 h. Cell viability was determined by MTT assay. SubG1 cell population (%) was analyzed and quantified after Propidium iodide (PI) staining followed by flow cytometry.

COLO 205 cells [5] = test: Flow cytometry analysis of subG1 cell population (PI staining); type: cell-based, human; settings: 24 h
Description: For subG1 cell population analysis, COLO 205 cells (2×10^5 cells/mL) were cultured in 12 well and treatment with various concentrations of pterostilbene or 3-hydroxypterostilbene for 24 h. The cells were then harvested, washed with PBS, re-suspended in 200 μL of PBS, and fixed in 800 μL of iced 100% ethanol at […]. After being left to stand overnight, the cell pellets were collected by centrifugation, re-suspended in 1 mL of hypotonic buffer (0.5% Triton X100 in PBS and 0.5 μg/mL RNase) with PI (50 μg/mL) and incubated at 37° C. in the dark for 30 min. Fluorescence emitted from the PIDNA complex was quantitated after excitation of the fluorescent dye by FACScan cytometry (Becton Dickinson, San Jose, Calif.). […] The results indicated a higher apoptotic potential of 3-hydroxypterostilbene for COLO 205 cells.

SMILES: COc1cc(/C=C/c2ccc(O)c(O)c2)cc(OC)c1 [3-hydroxypterostilbene, 3,4-dihydroxy-3′,5′-dimethoxy-trans-stilbene]
- appearance of AVO (fluorescence microscopy) (COLO 205 cells [1]; COLO 205, 50 μM): marked appearance of AVO than pterostilbene
- red fluorescence of cells with AVOs (flow cytometry) (COLO 205 cells [1]; COLO 205, 25 and 50 μM): significantly increased after treatment with 3-HPT in a dose dependent manner
- protein LC3 I/II expression [2]: Enhanced protein LC3 I/II expression
- increase in caspase 3 activity [3]: approximately 2.4 fold
- percentage of apoptotic cells (subG1) (PC-3 cells): increasing percentage of apoptotic cells over increasing concentrations
- cytotoxicity after CQ pretreatment (COLO 205 cells [4]): significant increase cytotoxicity
- percentage of apoptotic COLO 205 cells (subG1) (COLO 205 cells [5]; 5 μM): 7.2%
- percentage of apoptotic COLO 205 cells (subG1) (COLO 205 cells [5]; 10 μM): 9.3%
- percentage of apoptotic COLO 205 cells (subG1) (COLO 205 cells [5]; 25 μM): 20.1%
- percentage of apoptotic COLO 205 cells (subG1) (COLO 205 cells [5]; 50 μM): 36.3%
